From ChEMBL document CHEMBL5365461, “Degradation of Cyclin-Dependent Kinase 9/Cyclin T1 by Optimized Microtubule-Associated Protein 1 Light Chain 3 Beta-Recruiting Coumarin Analogs” (J Med Chem, 2023)
Each block holds one compound with its values, some of them ahead of it. Calls of active or inactive are those of the source. The calls are words filed in the database; no cut-off is given here.

What was measured:
[1] = biological target: Cyclin-dependent kinase 9 (Homo sapiens) (UniProt P50750); assay: Induction of CDK9 55 kDa degradation in human U2932 cells at 500 nM incubated for 12 hrs in presence of 5,7-Dihydroxy-4-methylcoumarin by immunoblotting analysis; assay type: cell-based
Cyclin-dependent kinase 9 (Homo sapiens), sequence (P50750 whole entry): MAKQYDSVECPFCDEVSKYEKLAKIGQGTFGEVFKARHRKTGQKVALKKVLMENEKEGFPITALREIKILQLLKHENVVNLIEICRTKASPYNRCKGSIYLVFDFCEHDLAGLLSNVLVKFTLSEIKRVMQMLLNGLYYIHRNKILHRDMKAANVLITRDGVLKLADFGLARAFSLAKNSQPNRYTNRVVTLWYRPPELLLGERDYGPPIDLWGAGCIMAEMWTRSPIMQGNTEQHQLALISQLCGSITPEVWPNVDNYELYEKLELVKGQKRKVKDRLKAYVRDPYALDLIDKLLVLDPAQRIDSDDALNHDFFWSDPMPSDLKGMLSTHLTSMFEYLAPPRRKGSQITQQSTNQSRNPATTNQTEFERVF

A2780 = assay: Cytotoxicity against human A2780 cells assessed as inhibition of cell growth measured after 72 hrs by CCK-8 assay; assay type: functional, cell-based
[2] = Half life in CD-1 mouse at 1 mg/kg, iv measured after 24 hrs by LC-MS/MS analysis; assay type: ADME, organism-based; conditions: in vivo
U2932 [3] = assay: Downregulation of Mcl-1 protein level in human U2932 cells incubated for 6 hrs by RT-qPCR analysis; assay type: functional, cell-based; conditions: dose 10-1000 nM
[4] = Oral bioavailability in CD-1 mouse at 5 mg/kg measured after 24 hrs by LC-MS/MS analysis; assay type: ADME, organism-based; conditions: in vivo
[5] = biological target: Cyclin-dependent kinase 9 (Homo sapiens) (UniProt P50750); assay: Induction of CDK9 42 kDa degradation in human U2932 cells by immunoblotting analysis; assay type: cell-based; conditions: dose 1-1000 nM
HCT-116 = assay: Cytotoxicity against human HCT-116 cells assessed as inhibition of cell growth measured after 72 hrs by CCK-8 assay; assay type: functional, cell-based
[6] = biological target: Cyclin-dependent kinase 9 (Homo sapiens) (UniProt P50750); assay: Induction of CDK9 42 kDa degradation in human U2932 cells at 500 nM incubated for 12 hrs in presence of MG132 by immunoblotting analysis; assay type: cell-based
U2932 [7] = assay: Induction of apoptosis in human U2932 cells assessed as necrotic cells at 1000 nM incubated for 24 hrs by AnnexinV-FITC/PI staining based flow cytometry analysis (reference value: 0.92%); assay type: functional
[8] = biological target: Cyclin-dependent kinase 9 (Homo sapiens) (UniProt P50750); assay: Induction of CDK9 42 kDa degradation in human U2932 cells assessed as maximal efficacy at 1 to 1000 nM by immunoblotting analysis relative to control; assay type: cell-based; conditions: dose 1-1000 nM
HCT-8 = assay: Cytotoxicity against human HCT-8 cells assessed as inhibition of cell growth measured after 72 hrs by CCK-8 assay; assay type: functional, cell-based
[9] = biological target: Cyclin-dependent kinase 9 (Homo sapiens) (UniProt P50750); assay: Induction of CDK9 55 kDa degradation in human U2932 cells assessed as maximal efficacy at 1 to 1000 nM by immunoblotting analysis relative to control; assay type: cell-based; conditions: dose 1-1000 nM
U2932 [10] = assay: Downregulation of RNAP2 phosphorylation at serine 5 residue in human U2932 cells at 10 to 1000 nM incubated for 6 hrs by immunoblotting analysis; assay type: functional, cell-based; conditions: dose 10-1000 nM
U2932 [11] = assay: Downregulation of c-Myc protein level in human U2932 cells incubated for 6 hrs by RT-qPCR analysis; assay type: functional, cell-based; conditions: dose 10-1000 nM
[12] = biological target: Cyclin-dependent kinase 9 (Homo sapiens) (UniProt P50750); assay: Induction of CDK9 55 kDa degradation in human U2932 cells at 100 nM by immunoblotting analysis; assay type: cell-based; conditions: time 1-24 hrs, TDE = time-dependent effect
[13] = biological target: Cyclin-dependent kinase 9 (Homo sapiens) (UniProt P50750); assay: Induction of CDK9 55 kDa degradation in human U2932 cells at 500 nM incubated for 12 hrs in presence of MLN4924 by immunoblotting analysis; assay type: cell-based
[14] = biological target: Cyclin-dependent kinase 9 (Homo sapiens) (UniProt P50750); assay: Induction of CDK9 55 kDa degradation in human U2932 cells at 500 nM incubated for 12 hrs in presence of SNS-032 by immunoblotting analysis; assay type: cell-based
MV4-11 [15] = assay: Downregulation of Mcl-1 protein level in human MV4-11 cells incubated for 6 hrs by RT-qPCR analysis; assay type: functional, cell-based; conditions: dose 10-1000 nM
U2932 [16] = assay: Downregulation of RNAP2 phosphorylation at serine 2 residue in human U2932 cells at 10 to 1000 nM incubated for 6 hrs by immunoblotting analysis; assay type: functional, cell-based; conditions: dose 10-1000 nM
[17] = biological target: Cyclin-dependent kinase 9 (Homo sapiens) (UniProt P50750); assay: Induction of CDK9 55 kDa degradation in human U2932 cells by immunoblotting analysis; assay type: cell-based; conditions: dose 1-1000 nM
[18] = biological target: Cyclin-dependent kinase 9 (Homo sapiens) (UniProt P50750); assay: Induction of CDK9 42 kDa degradation in human U2932 cells at 100 nM by immunoblotting analysis; assay type: cell-based; conditions: time 1-24 hrs, TDE = time-dependent effect
[19] = AUC(0 to t) in CD-1 mouse at 1 mg/kg, iv measured after 24 hrs by LC-MS/MS analysis; assay type: ADME, organism-based; design: time 24 hrs, dose 1 mg/kg, route iv; conditions: in vivo
[20] = Tmax in CD-1 mouse at 5 mg/kg, ip measured after 24 hrs by LC-MS/MS analysis; assay type: ADME, organism-based; conditions: in vivo
[21] = biological target: Cyclin-dependent kinase 9 (Homo sapiens) (UniProt P50750); assay: Induction of CDK9 42 kDa degradation in human U2932 cells at 500 nM incubated for 12 hrs in presence of MLN4924 by immunoblotting analysis; assay type: cell-based
[22] = biological target: Cyclin-dependent kinase 9 (Homo sapiens) (UniProt P50750); assay: Induction of CDK9 42 kDa degradation in human U2932 cells at 500 nM incubated for 12 hrs in presence of BafA1 by Co-immunoprecipitation analysis; assay type: cell-based
U2932 [23] = assay: Induction of apoptosis in human U2932 cells assessed as late apoptotic cells at 1000 nM incubated for 24 hrs by AnnexinV-FITC/PI staining based flow cytometry analysis (reference value: 5.95%); assay type: functional
[24] = Observed clearance in CD-1 mouse at 1 mg/kg, iv measured after 24 hrs by LC-MS/MS analysis; assay type: ADME, organism-based; conditions: in vivo
[25] = biological target: Cyclin-dependent kinase 9 (Homo sapiens) (UniProt P50750); assay: Induction of CDK9 42 kDa degradation in human U2932 cells at 500 nM incubated for 12 hrs in presence of BafA1 by immunoblotting analysis; assay type: cell-based
[26] = biological target: Cyclin-dependent kinase 9 (Homo sapiens) (UniProt P50750); assay: Induction of CDK9 42 kDa degradation in human U2932 cells at 500 nM incubated for 12 hrs in presence of HCQ by immunoblotting analysis; assay type: cell-based
U2932 [27] = assay: Induction of apoptosis in human U2932 cells assessed as viable cells at 1000 nM incubated for 24 hrs by AnnexinV-FITC/PI staining based flow cytometry analysis (reference value: 86.9%); assay type: functional; conditions: read-out: Activity
[28] = biological target: Cyclin-dependent kinase 9 (Homo sapiens) (UniProt P50750); assay: Induction of CDK9 55 kDa degradation in human U2932 cells at 500 nM incubated for 12 hrs in presence of BafA1 by immunoblotting analysis; assay type: cell-based
[29] = Observed MRTinfinity in CD-1 mouse at 1 mg/kg, iv measured after 24 hrs by LC-MS/MS analysis; assay type: ADME, organism-based; conditions: in vivo
[30] = AUC(0 to t) in CD-1 mouse at 5 mg/kg, ip measured after 24 hrs by LC-MS/MS analysis; assay type: ADME, organism-based; design: dose 5 mg/kg, time 24 hrs, route ip; conditions: in vivo
U2932 [31] = assay: Induction of LC3B […] in human U2932 cells at 500 nM incubated for 12 hrs in presence of BafA1 by Co-immunoprecipitation analysis; assay type: cell-based
[32] = biological target: Cyclin-dependent kinase 9 (Homo sapiens) (UniProt P50750); assay: Induction of CDK9 55 kDa degradation in human U2932 cells at 500 nM incubated for 12 hrs in presence of MG132 by immunoblotting analysis; assay type: cell-based
[33] = Cmax in CD-1 mouse at 5 mg/kg, ip measured after 24 hrs by LC-MS/MS analysis; assay type: ADME, organism-based; design: dose 5 mg/kg, time 24 hrs, route ip; conditions: in vivo
MV4-11 [34] = assay: Induction of apoptosis in human MV4-11 cells at 1000 nM incubated for 24 hrs by AnnexinV-FITC/PI staining based flow cytometry analysis; assay type: functional, cell-based
[35] = Half life in CD-1 mouse at 5 mg/kg, ip measured after 24 hrs by LC-MS/MS analysis; assay type: ADME, organism-based; conditions: in vivo
MV4-11 [36] = assay: Downregulation of c-Myc protein level in human MV4-11 cells incubated for 6 hrs by RT-qPCR analysis; assay type: functional, cell-based; conditions: dose 10-1000 nM
[37] = biological target: Cyclin-dependent kinase 9 (Homo sapiens) (UniProt P50750); assay: Induction of CDK9 55 kDa degradation in human U2932 cells at 500 nM incubated for 12 hrs in presence of HCQ by immunoblotting analysis; assay type: cell-based
KP-4 = assay: Cytotoxicity against human KP-4 cells assessed as inhibition of cell growth measured after 72 hrs by CCK-8 assay; assay type: functional, cell-based

Activity [1]: inactive
half-life [2]: 118 min
bioavailability [4]: 43.1%
Activity [5]: Dose-Dependent Effect
Activity [6]: Active
Emax [8]: 59%
Emax [9]: 54.8%
Activity [12]: Tde
Activity [13]: Active
Activity [14]: inactive
Activity [17]: Dose-Dependent Effect
Activity [18]: Tde
AUC(0-t) at 24 h [19]: 72.3 ng·h/mL
Tmax [20]: 15 min
Activity [21]: Active
Activity [22]: Active
clearance [24]: 229 mL/min/kg
Activity [25]: inactive
Activity [26]: inactive
Activity [28]: inactive
MRT inf [29]: 47.4 min
AUC(0-t) at 24 h [30]: 156 ng·h/mL
Activity [32]: Active
Cmax [33]: 88.4 ng/mL
half-life [35]: 280 min
Activity [37]: inactive
Structure (SMILES): Cc1cc(=O)oc2cc(O)cc(OCCCCCN3CCC(C(=O)Nc4ncc(SCc5ncc(C(C)(C)C)o5)s4)CC3)c12
Activity (A2780): Active
Activity (U2932 [3]): Active
Activity (HCT-116): Active
Activity (U2932 [7]): 2.12%
Activity (HCT-8): Active
Activity (U2932 [10]): inactive
Activity (U2932 [11]): Active
Activity (MV4-11 [15]): Dose-Dependent Effect
Activity (U2932 [16]): Active
Activity (U2932 [23]): 40.9%
viability at 1 µM (U2932 [27]): 41.8%
Activity (U2932 [31]): Active
Activity (MV4-11 [34]): Active
Activity (MV4-11 [36]): Dose-Dependent Effect
Activity (KP-4): Active

Activity [1]: inactive
half-life [2]: 61.8 min
bioavailability [4]: 24.6%
Activity [5]: Dose-Dependent Effect
Activity [6]: Active
Emax [8]: 49.9%
Emax [9]: 46%
Activity [12]: Tde
Activity [13]: Active
Activity [14]: inactive
Activity [17]: Dose-Dependent Effect
Activity [18]: Tde
AUC(0-t) at 24 h [19]: 116 ng·h/mL
Tmax [20]: 15 min
Activity [21]: Active
Activity [22]: Active
clearance [24]: 140 mL/min/kg
Activity [25]: inactive
Activity [26]: inactive
Activity [28]: inactive
MRT inf [29]: 40.4 min
AUC(0-t) at 24 h [30]: 143 ng·h/mL
Activity [32]: Active
Cmax [33]: 88.6 ng/mL
half-life [35]: 217 min
Activity [37]: inactive
Structure (SMILES): Cc1cc(=O)oc2cc(OCCCN3CCC(C(=O)Nc4ncc(SCc5ncc(C(C)(C)C)o5)s4)CC3)cc(O)c12
Activity (A2780): Active
Activity (U2932 [3]): Active
Activity (HCT-116): Active
Activity (U2932 [7]): 2.08%
Activity (HCT-8): Active
Activity (U2932 [10]): inactive
Activity (U2932 [11]): Active
Activity (MV4-11 [15]): Dose-Dependent Effect
Activity (U2932 [16]): Active
Activity (U2932 [23]): 38.7%
viability at 1 µM (U2932 [27]): 47.4%
Activity (U2932 [31]): Active
Activity (MV4-11 [34]): Active
Activity (MV4-11 [36]): Dose-Dependent Effect
Activity (KP-4): Active
